Laboratory results reported in US9486464B2, “Composition and method of manufacture” (Persavita Ltd, priority 2010, dated 2016).

Key:
[1] = tested on: mammalian retina; conditions: after exposure to damaging light; cited from earlier work
[2] = tested on: primary human RPE cells; assay: Light-induced phototoxicity in primary human RPE cells, viability by MTT assay; type: cell-based; conditions: pre-treatment 100 μM crocin, 1 μM resveratrol or both; 300 mW/cm^2 for 60 min; FIG. 3
Experimental: (§1) When implementing the method, concentrations of 10 μM to 500 μM crocin and 0.1 μM to 25 μM resveratrol are beneficially employed for toxicity characterization. Moreover, concentrations of 100 μM crocin and 1 μM resveratrol are beneficially employed to investigate synergistic effects against light-induced phototoxicity with a final DMSO concentration of 0.1%. Beneficially, DMSO is added to cultures at 0.1% (v/v) as a solvent control.
For preparing the cell culture medium, primary RPE cells from three human donors (obtained 3 to 10 hours postmortem) without any history of eye disease were obtained from the Eye Bank of Ludwig Maximilian University. Dulbecco-modified Eagle medium (DMEM, obtainable from Biochrom, Berlin, Germany) supplemented with 10% fetal calf serum (FCS, obtainable from Biochrom, Berlin, Germany) was used as the cell culture medium when undertaking the experimental tests. […]
The aforesaid illumination is beneficially obtained from a spot-light source (LC-8, obtainable from Hamamatsu Photonics, Japan), although other illumination sources are optionally employed. […] For obtaining accurate experimental measurements, the illumination power and spectral range of illumination employed for the tests are beneficially measured using a spectrometer (C10083MD, obtainable from Hamamatsu Photonics), although other measuring instruments may be optionally employed. […]

[3] = tested on: bovine and primate retinal cell cultures; conditions: 160 μM crocin; cited from earlier work
[4] = tested on: primary RPE cells; assay: Toxicity testing on RPE cell cultures (MTT assay); conditions: 24 hours of exposure; crocin 10 μM to 500 μM, resveratrol 0.1 μM to 25 μM
Experimental: as §1
Dulbecco-modified Eagle medium (DMEM, obtainable from Biochrom, Berlin, Germany) supplemented with 10% fetal calf serum (FCS, obtainable from Biochrom, Berlin, Germany) was used as the cell culture medium when undertaking the experimental tests.
For determining cell survival rate after the aforesaid illumination, the tetrazolium dye-reduction assay (MTT); 3-[4,5-methylthiazol-2-yl]-2,2-diphenyl tetrazolium bromide) is beneficially used for determining the cell survival rate after aforesaid illumination has been applied. […] The serum-free cell culture medium is beneficially removed, the cells then washed with PBS, and thereafter 1000 μL of MTT solution (1.5 mL MTT stock, 2 mg/mL in PBS, together with 28.5 mL MEM) added to each well in the cell culture. […] Thereafter, absorption is beneficially measured by employing a scanning multiwell spectrophotometer operating at an interrogating radiation wavelength of 550 nm (apparatus obtainable from Molecular Probes). […]

[5] = tested on: mouse retina; conditions: in vitro and in vivo, sirtuin-independent pathway; cited from earlier work
[6] = tested on: vascular endothelial cells; conditions: cited from earlier work
[7] = tested on: human RPE cells; conditions: cited from earlier work
[8] = tested on: retina; conditions: oral consumption in mice; cited from earlier work

SMILES | retinal morphology and function [1] | decrease in viability of RPE cells after light exposure compared with cells not treated [2] | photoreceptors surviving light exposure [3] | toxic effects in respect of RPE cell cultures [4] | pathological angiogenesis [5] | proliferation and migration of vascular endothelial cells [6] | effect on acrolein-induced oxidative stress [7] | retinal degradation related to light damage [8]
CC1=C(/C=C/C(C)=C/C=C/C(C)=C/C=C/C=C(C)/C=C/C=C(C)/C=C/C2=C(C)CCCC2(C)C)C(C)(C)CCC1 [beta-carotene] | ineffective for maintaining retinal function, and only improved morphology |  |  |  |  |  |  | 
CC(/C=C/C=C(\C)C(=O)O[C@@H]1O[C@H](CO[C@@H]2O[C@H](CO)[C@@H](O)[C@H](O)[C@H]2O)[C@@H](O)[C@H](O)[C@H]1O)=C\C=C\C=C(C)\C=C\C=C(/C)C(=O)O[C@@H]1O[C@H](CO[C@@H]2O[C@H](CO)[C@@H](O)[C@H](O)[C@H]2O)[C@@H](O)[C@H](O)[C@H]1O [crocin] |  | significantly smaller decrease in viability | more than 90% | no significant toxic effects |  |  |  | 
Oc1ccc(/C=C/c2cc(O)cc(O)c2)cc1 [resveratrol, 3,5,4″-trihydroxystilbene] |  | significantly smaller decrease in viability |  |  | inhibit pathological angiogenesis | inhibiting proliferation and migration | protective effects | capable of preventing retinal degradation
